Measured values: patent US20100311714A1, “1H-IMIDAZO[4,5-c]QUINOLINONE COMPOUNDS” (priority 2009, published 2010)
Like-named read-outs stand apart in the source and are kept apart here.

Biological target: T1, PI3K delta (Homo sapiens, UniProt O00329)
T1 construct: for the full-length p110-d subunit are generated and fused by overlapping PCR; His tag (C); made in house; host or cells: baculovirus BV1060; Tn5 (Trichoplusia ni) or TiniPro insect cells
Assay: PI3K delta kinase assay (Kinase-Glo luminescence)
Assay type: biochemical
Experimental: In a more preferred assay, the kinase reaction is performed in a final volume of 10 μL per well of a low volume non binding CORNING, 384 well black plate (Cat. No. #3676). The final concentrations of ATP and phosphatidyl inositol (PI) in the assay are 1 μM and 10 μg/mL respectively. The reaction is started by the addition of ATP.
The components of the assay are added per well as follows:
50 nL test compounds in 90% DMSO per well, in columns 1-20, 8 concentrations (⅓ and 1/3.33 serial dilution step) in single. • Low control: […] of 90% DMSO in half the wells of columns 23-24 (0.45% in final). • High control: 50 nL of reference compound (e.g. compound of Example 7 in WO 2006/122806) in the other half of columns 23-24 (2.5 μM in final). • Standard: 50 nL of reference compound as just mentioned diluted as the test compounds in columns 21-22 • 20 mL ‘buffer’ are prepared per assay: • 200 μL of 1M TRIS HCl pH7.5 (10 mM in final) • 60 μL of 1M MgCl2 (3 mM in final) • 500 μL of 2M NaCl (50 mM in final) • 100 μL of 10% CHAPS (0.05% in final) • 200 μL of 100 mM DTT (1 mM in final) • 18.94 mL of nanopure water • 10 mL ‘PI’ are prepared per assay: • 200 μL of 1 mg/ml L-alpha-Phosphatidylinositol (Liver Bovine, Avanti Polar Lipids Cat. No. 840042C MW=909.12) prepared in 3% OctylGlucoside (10 μg/ml in final) • 9.8 mL of ‘buffer’ • 10 mL ‘ATP’ are prepared per assay: • 6.7 μL of 3 mM stock of ATP giving a final concentration of 1 μM per well • 10 mL of ‘buffer’ • 2.5 mL of each PI3K construct are prepared per assay in ‘PI’ with the following final concentration: • 10 nM PI3K alfa EMV B1075 • 25 nM beta EMV BV949 • 10 nM delta EMV BV1060 • 150 nM gamma EMV BV950 • 5 μL of ‘PI/PI3K’ are added per well. • 5 μl ‘ATP’ are added per well to start the reaction. • The plates are then incubated at room temperature for 60 minutes (alfa, beta, delta) or 120 minutes (gamma). • The reaction is terminated by the addition of 10 μL Kinase-Glo (Promega Cat. No. #6714). • The assay plates are read after 10 minutes in Synergy 2 reader (BioTek, Vermont USA) with an integration time of 100 milliseconds and sensitivity set to 191. • Output: The High control is around 60′000 counts and the Low control is 30′000 or lower • This luminescence assay gives a useful Z′ ratio between 0.4 and 0.7
PI3Kδ BV-1060 p85(iSH2)-Gly Linker-p110d(Full-Length)-C-Term His Tag
PI3K delta is purified in three chromatographic steps: immobilized metal affinity chromatography on a Ni Sepharose resin (GE Healthcare), gel filtration utilizing a Superdex 200 26/60 column (GE Healthcare), and finally a anion exchange step on a Q-HP column (GE Healthcare). All buffers are chilled to 4° C. and lysis is performed chilled on ice. Column fractionation is performed rapidly at room temperature. Typically frozen insect cells are lysed in a hypertonic lysis buffer and applied to a prepared IMAC column. The resin is washed with 3-5 column volumes of lysis buffer, followed by 3-5 column volumes wash buffer containing 45 mM imidazole, and the target protein is then eluted with a buffer containing 250 mM imidazole. Fractions are analyzed by Coomassie stained SDS-PAGE gels, and fractions containing the target protein are pooled and applied to a prepared GFC column. Fractions from the GFC column are analyzed by Coomassie stained SDS-PAGE gels, and fractions containing the target protein are pooled. The pool from the GFC column is diluted into a low salt buffer and applied to a prepared Q-HP column. The column is washed with low salt buffer until a stable A280 baseline absorbance is achieved, and eluted using a 20 column volume gradient from 0 mM NaCl to 500 mM NaCl. Again, fractions from the Q-HP column are analyzed by Coomassie stained SDS-PAGE gels, and fractions containing the target protein are pooled. The final pool is dialyzed into a storage buffer containing 50% glycerol and stored at −20° C. The final pool is assayed for activity in the phosphoinostitol kinase assay. […]

T1 sequence (O00329 with tags, fused parts or gaps limits assumed): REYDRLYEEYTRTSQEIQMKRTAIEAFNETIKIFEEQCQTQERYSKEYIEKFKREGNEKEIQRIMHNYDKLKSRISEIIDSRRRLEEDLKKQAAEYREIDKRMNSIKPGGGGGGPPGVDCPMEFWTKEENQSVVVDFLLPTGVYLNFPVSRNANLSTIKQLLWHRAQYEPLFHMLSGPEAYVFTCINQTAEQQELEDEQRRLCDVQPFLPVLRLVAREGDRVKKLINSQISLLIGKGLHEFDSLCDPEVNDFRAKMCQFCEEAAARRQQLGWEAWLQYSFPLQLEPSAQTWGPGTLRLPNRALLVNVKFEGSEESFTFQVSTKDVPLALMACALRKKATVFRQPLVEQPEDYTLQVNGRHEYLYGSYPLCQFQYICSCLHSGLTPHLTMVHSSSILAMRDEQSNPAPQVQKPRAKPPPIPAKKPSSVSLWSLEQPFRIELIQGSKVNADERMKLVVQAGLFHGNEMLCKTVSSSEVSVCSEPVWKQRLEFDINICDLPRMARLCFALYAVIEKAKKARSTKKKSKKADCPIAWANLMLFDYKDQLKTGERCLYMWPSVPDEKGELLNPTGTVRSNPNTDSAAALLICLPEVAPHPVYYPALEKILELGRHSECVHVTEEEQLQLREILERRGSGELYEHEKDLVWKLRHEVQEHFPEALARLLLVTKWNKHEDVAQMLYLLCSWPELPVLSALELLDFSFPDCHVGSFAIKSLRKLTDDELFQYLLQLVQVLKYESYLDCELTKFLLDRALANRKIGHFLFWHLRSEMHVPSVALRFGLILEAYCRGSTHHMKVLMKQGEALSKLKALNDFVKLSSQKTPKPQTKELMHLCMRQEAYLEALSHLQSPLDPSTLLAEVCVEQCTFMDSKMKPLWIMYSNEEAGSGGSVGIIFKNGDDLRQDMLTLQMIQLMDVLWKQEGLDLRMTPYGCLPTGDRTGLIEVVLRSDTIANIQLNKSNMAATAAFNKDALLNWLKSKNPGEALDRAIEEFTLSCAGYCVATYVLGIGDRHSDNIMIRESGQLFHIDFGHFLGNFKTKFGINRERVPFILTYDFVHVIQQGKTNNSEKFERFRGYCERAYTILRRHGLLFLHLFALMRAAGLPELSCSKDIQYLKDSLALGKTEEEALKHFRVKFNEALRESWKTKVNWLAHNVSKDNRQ

**Q.** How did the IC50 (read-out: EPK_PI3Kdelta/IC50) turn out when COC1CCN(c2ccc(-n3c(=O)n(C)c4cnc5ccc(-c6cncc(C(C)(C)O)c6)cc5c43)c(C)n2)C1 (stereo not shown) [Example 28.1, 8-[5-(1-Hydroxy-1-methyl-ethyl)-pyridin-3-yl]-1-[6-(3-methoxy-pyrrolidin-1-yl)-2-methyl-pyridin-3-yl]-3-methyl-1,3-dihydro-imidazo[4,5-c]quinolin-2-one] was run?
**A.** 59 nM

**Q.** Which IC50 (read-out: EPK_PI3Kdelta/IC50) does the source give for Cc1nc(C(C)(C)O)ccc1-n1c(=O)n(C)c2cnc3ccc(-c4cnc(N)c(C(F)(F)F)c4)cc3c21 [Example 31.5, 8-(6-Amino-5-trifluoromethyl-pyridin-3-yl)-1-[6-(1-hydroxy-1-methyl-ethyl)-2-methyl-pyridin-3-yl]-3-methyl-1,3-dihydro-imidazo[4,5-c]quinolin-2-one] here?
**A.** < 3 nM

**Q.** For Cc1cccnc1-n1c(=O)n(C)c2cnc3ccc(-c4ccc(C(N)=O)cc4)cc3c21 [Example 3.3, 4-[3-Methyl-1-(3-methyl-pyridin-2-yl)-2-oxo-2,3-dihydro-1H-imidazo[4,5-c]quinolin-8-yl]-benzamide], which IC50 (read-out: PI3Kdelta/IC50) is on record?
**A.** 834 nM

**Q.** CCOc1cc(-c2ccc3ncc4c(c3c2)n(-c2ccc(N3CCCC3)nc2C)c(=O)n4C)cnc1COC [Example 25.2, 8-(5-Ethoxy-6-methoxymethyl-pyridin-3-yl)-3-methyl-1-(2-methyl-6-pyrrolidin-1-yl-pyridin-3-yl)-1,3-dihydro-imidazo[4,5-c]quinolin-2-one] was tested. Which IC50 (read-out: EPK_PI3Kdelta/IC50) did it give?
**A.** 43 nM

**Q.** CNc1cc(-c2ccc3ncc4c(c3c2)n(-c2cccnc2C)c(=O)n4C)cnc1C [Example 2.32, 3-Methyl-8-(6-methyl-5-methylamino-pyridin-3-yl)-1-(2-methyl-pyridin-3-yl)-1,3-dihydro-imidazo[4,5-c]quinolin-2-one] was tested. Which IC50 (read-out: EPK_PI3Kdelta/IC50) did it give?
**A.** 31 nM

**Q.** Which IC50 (read-out: EPK_PI3Kdelta/IC50) does the source give for CCOc1ccc(-c2ccc3ncc4c(c3c2)n(-c2ccc(C(C)(C)O)nc2C)c(=O)n4C)cn1 [Example 31.4, 8-(6-Ethoxy-pyridin-3-yl)-1-[6-(1-hydroxy-1-methyl-ethyl)-2-methyl-pyridin-3-yl]-3-methyl-1,3-dihydro-imidazo[4,5-c]quinolin-2-one] here?
**A.** 36 nM

**Q.** Cc1nc(F)ccc1-n1c(=O)n(C)c2cnc3ccc(-c4cnc5c(ccn5C)c4)cc3c21 [Example 7.2, 1-(6-Fluoro-2-methyl-pyridin-3-yl)-3-methyl-8-(1-methyl-1H-pyrrolo[2,3-b]pyridin-5-yl)-1,3-dihydro-imidazo[4,5-c]quinolin-2-one] was tested. Which IC50 (read-out: PI3Kdelta/IC50) did it give?
**A.** 31 nM

**Q.** How did the IC50 (read-out: EPK_PI3Kdelta/IC50) turn out when Cc1ncccc1-n1c(=O)n(C)c2cnc3ccc(-c4cncc(N)c4)cc3c21 [Example 2.25, 8-(5-Amino-pyridin-3-yl)-3-methyl-1-(2-methyl-pyridin-3-yl)-1,3-dihydro-imidazo[4,5-c]quinolin-2-one] was run?
**A.** 57 nM

**Q.** With Cc1ncccc1-n1c(=O)n(C)c2cnc3ccc(-c4cncc(NC(C)C)c4)cc3c21 [Example 2.24, 8-(5-Isopropylamino-pyridin-3-yl)-3-methyl-1-(2-methyl-pyridin-3-yl)-1,3-dihydro-imidazo[4,5-c]quinolin-2-one] as the compound, how does the IC50 (read-out: EPK_PI3Kdelta/IC50) read?
**A.** 31 nM

**Q.** With Cc1ccncc1-n1c(=O)n(C)c2cnc3ccc(-c4ccc(CO)nc4)cc3c21 [Example 4.1, 8-(6-Hydroxymethyl-pyridin-3-yl)-3-methyl-1-(4-methyl-pyridin-3-yl)-1,3-dihydro-imidazo[4,5-c]quinolin-2-one] as the compound, how does the IC50 (read-out: PI3Kdelta/IC50) read?
**A.** 406 nM

**Q.** Which IC50 (read-out: EPK_PI3Kdelta/IC50) does the source give for CCOc1cc(-c2ccc3ncc4c(c3c2)n(-c2ccc(OCCOC)nc2C)c(=O)n4C)cnc1COC [Example 22.1, 8-(5-Ethoxy-6-methoxymethyl-pyridin-3-yl)-1-[6-(2-methoxy-ethoxy)-2-methyl-pyridin-3-yl]-3-methyl-1,3-dihydro-imidazo[4,5-c]quinolin-2-one] here?
**A.** 60 nM

**Q.** With CNc1ncc(-c2ccc3ncc4c(c3c2)n(-c2ccc(N3CC[C@H](O)C3)nc2C)c(=O)n4C)cn1 [Example 32.1, 1-[6-((S)-3-Hydroxy-pyrrolidin-1-yl)-2-methyl-pyridin-3-yl]-3-methyl-8-(2-methylamino-pyrimidin-5-yl)-1,3-dihydro-imidazo[4,5-c]quinolin-2-one] as the compound, how does the IC50 (read-out: EPK_PI3Kdelta/IC50) read?
**A.** 9 nM

**Q.** For Cc1nc(N2CCCC2)ccc1-n1c(=O)n(C)c2cnc3ccc(-c4cncc(C(C)(C)O)c4)cc3c21 [Example 25.3, 8-[5-(1-Hydroxy-1-methyl-ethyl)-pyridin-3-yl]-3-methyl-1-(2-methyl-6-pyrrolidin-1-yl-pyridin-3-yl)-1,3-dihydro-imidazo[4,5-c]quinolin-2-one], which IC50 (read-out: EPK_PI3Kdelta/IC50) is on record?
**A.** < 3 nM

**Q.** CNc1ncc(-c2ccc3ncc4c(c3c2)n(-c2ccc(N3CC(O)C3)nc2C)c(=O)n4C)cc1F [Example 29.3, 8-(5-Fluoro-6-methylamino-pyridin-3-yl)-1-[6-(3-hydroxy-azetidin-1-yl)-2-methyl-pyridin-3-yl]-3-methyl-1,3-dihydro-imidazo[4,5-c]quinolin-2-one] was tested. Which IC50 (read-out: EPK_PI3Kdelta/IC50) did it give?
**A.** 23 nM

**Q.** Cc1ncccc1-n1c(=O)n(C)c2cnc3ccc(-c4ccc(C(N)=O)cc4)cc3c21 [Example 2.3, 4-[3-Methyl-1-(2-methyl-pyridin-3-yl)-2-oxo-2,3-dihydro-1H-imidazo[4,5-c]quinolin-8-yl]-benzamide] was tested. Which IC50 (read-out: PI3Kdelta/IC50) did it give?
**A.** 93 nM

**Q.** With COc1ccc(-c2ccc3ncc4c(c3c2)n(-c2cccnc2C)c(=O)n4C)cc1OC [Example 2.9, 8-(3,4-Dimethoxy-phenyl)-3-methyl-1-(2-methyl-pyridin-3-yl)-1,3-dihydro-imidazo[4,5-c]quinolin-2-one] as the compound, how does the IC50 (read-out: PI3Kdelta/IC50) read?
**A.** 37 nM

**Q.** COc1ncccc1-n1c(=O)n(C)c2cnc3ccc(-c4cnc5[nH]ccc5c4)cc3c21 [Example 1.2, 1-(2-Methoxy-pyridin-3-yl)-3-methyl-8-(1H-pyrrolo[2,3-b]pyridin-5-yl)-1,3-dihydro-imidazo[4,5-c]quinolin-2-one] was tested. Which IC50 (read-out: PI3Kdelta/IC50) did it give?
**A.** 13 nM

**Q.** COCc1ncc(-c2ccc3ncc4c(c3c2)n(-c2ccc(N3CCC3)nc2C)c(=O)n4C)cc1OC [Example 23.6, 1-(6-Azetidin-1-yl-2-methyl-pyridin-3-yl)-8-(5-methoxy-6-methoxymethyl-pyridin-3-yl)-3-methyl-1,3-dihydro-imidazo[4,5-c]quinolin-2-one] was tested. Which IC50 (read-out: EPK_PI3Kdelta/IC50) did it give?
**A.** 46 nM

**Q.** For Cc1ncccc1-n1c(=O)n(C)c2cnc3ccc(-c4cnc(N(C)C)nc4)cc3c21 [Example 2.15, 8-(2-Dimethylamino-pyrimidin-5-yl)-3-methyl-1-(2-methyl-pyridin-3-yl)-1,3-dihydro-imidazo[4,5-c]quinolin-2-one], which IC50 (read-out: PI3Kdelta/IC50) is on record?
**A.** 32 nM

**Q.** With CNc1ccc(-c2ccc3ncc4c(c3c2)n(-c2ccc(F)nc2C)c(=O)n4C)cn1 [Example 7.4, 1-(6-Fluoro-2-methyl-pyridin-3-yl)-3-methyl-8-(6-methylamino-pyridin-3-yl)-1,3-dihydro-imidazo[4,5-c]quinolin-2-one] as the compound, how does the IC50 (read-out: PI3Kdelta/IC50) read?
**A.** 21 nM

**Q.** COc1ncc(-c2ccc3ncc4c(c3c2)n(-c2ccc(N3CC(O)C3)nc2C)c(=O)n4C)c(OC)n1 [Example 29.6, 8-(2,4-Dimethoxy-pyrimidin-5-yl)-1-[6-(3-hydroxy-azetidin-1-yl)-2-methyl-pyridin-3-yl]-3-methyl-1,3-dihydro-imidazo[4,5-c]quinolin-2-one] was tested. Which IC50 (read-out: EPK_PI3Kdelta/IC50) did it give?
**A.** 10 nM

**Q.** For Cc1ncccc1-n1c(=O)n(C)c2cnc3ccc(-c4ccc(N)nc4)cc3c21 [Example 2.7, 8-(6-Amino-pyridin-3-yl)-3-methyl-1-(2-methyl-pyridin-3-yl)-1,3-dihydro-imidazo[4,5-c]quinolin-2-one], which IC50 (read-out: PI3Kdelta/IC50) is on record?
**A.** 35 nM
